The values below come from patent US11059825B2, “CXCR7 antagonists” (CHEMOCENTRYX, INC., priority 2012, dated 2021).

For test [1], the target named is T1, CXCR7 receptor (Homo sapiens (Human), UniProt P25106). The test is described as follows: Buffer Binding Analysis: displacement of 125I-labeled SDF-1 from CXCR7 on cells. As to conditions: buffer binding medium, MCF-7 and/or MDA-MB-435S CXCR7 transfected cells, 125I SDF-1, 3 hr at 4° C.; read-out: Avg Bind IC50. As for the experimental part: (§1) The ability of the compounds to displace the labeled chemokine from the CXCR7 receptor sites at multiple concentrations was then determined with the screening process.
T1 sequence (P25106 whole entry): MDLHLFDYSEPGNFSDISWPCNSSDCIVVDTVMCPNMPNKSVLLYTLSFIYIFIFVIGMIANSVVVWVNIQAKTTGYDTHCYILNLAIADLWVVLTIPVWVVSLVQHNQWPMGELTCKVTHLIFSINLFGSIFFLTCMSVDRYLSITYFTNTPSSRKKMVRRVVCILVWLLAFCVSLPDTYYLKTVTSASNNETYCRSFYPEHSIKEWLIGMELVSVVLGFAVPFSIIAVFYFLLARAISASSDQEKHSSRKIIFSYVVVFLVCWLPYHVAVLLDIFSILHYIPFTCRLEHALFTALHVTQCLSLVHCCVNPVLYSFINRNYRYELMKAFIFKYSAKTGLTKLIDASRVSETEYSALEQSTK
(§2) ^125I-labeled SDF-1 was purchased from Perkin-Elmer Life Sciences, Inc. (Boston, Mass.). The MCF-7 (adenocarcinoma; mammary gland) cell line was obtained from the American Type Culture Collection (ATCC, Manassas, Va.) or and was cultured in DMEM (Mediatech, Herndon, Va.) supplemented with 10% fetal bovine serum (FBS) (HyClone Logan, Utah) and bovine insulin (0.01 mg/mL) (Sigma, St. Louis, Mo.) at 37° C. in a humidified incubator at a 5% CO2/air mixture. CXCR7 transfected MDA-MB-435S were produced as described below. MDA-MB-435 S human breast cancer line, was purchased from ATCC, and cultured in DMEM/10% FBS medium. The complete coding sequence of the gene encoding CXCR7 (a.k.a. CCXCKR2, hRDC1), was isolated from MCF-7 cells using MACs mRNA isolation kit (Miltenyi Biotec, Auburn, Calif.). DNA contamination was removed by DNase digestion via RNeasy columns (Qiagen, Inc., Valencia, Calif.) and cDNA was generated using GeneAmp RNA PCR Core Kit (Applied Biosystems, Foster City, Calif.). PCR of cDNA samples was performed using Taq PCR Master Mix kit (Qiagen, Inc.) and hRDC1 primers harboring 5′ and 3′ Not I sites (hRDC1F 5′ […]-3′, hRDC1R 5′-[…]-3′) Not I digested PCR product was ligated into Not I digested pcDNA3.1 (+)(Invitrogen, Carlsbad, Calif.) and screened for orientation and sequence confirmed. Plasmid DNA was then isolated from overnight bacterial cultures by Maxiprep (Qiagen, Inc.). Plasmid DNA (10 μg) was added to MDA-MB-435s cells and cells were electroporated (0.22 kV, 960 uF) via Gene Pulser (Biorad laboratories, Hercules, Calif.). 48 hr post-electroporation, cells were transferred to selection medium (600 ug/ml G418).
Target compounds can be tested to determine their ability to bind with CXCR7 sites on MCF-7 and/or MDA-MB-435S CXCR7 transfected cells. Efficiency-maximized radioligand binding using filtration protocols as described in Dairaghi D J, et al., HHV8-encoded vMIP-1 selectively engages chemokine receptor CCR5. Agonist and antagonist profiles of viral chemokines., J. Biol. Chem. 1999 Jul. […]
In these assays, MCF-7 and/or MDA-MB-435S cells are interrogated with the target compounds and the ability of these compounds to displace ^125I radiolabeled SDF-1 assessed using the protocol described in Dairaghi and Gosling. […] Scintillant (MicroScint 10, Packard) is added to the wells, and the filters counted in a Packard Topcount scintillation counter. Data are analyzed and plotted using GraphPad Prism (GraphPad Software).
Background: Loss of bound radioactivity is the signal in a displacement assay; it reports binding, not function.

The target in test [2] is T1, CXCR7 receptor. The test is described as follows: Serum Binding Analysis: displacement of 125I SDF-1 from CXCR7 in 100% human serum. As to conditions: 100% human serum (human AB serum with 10 mM HEPES), MCF-7 and/or MDA-MB-435S CXCR7 transfected cells, 125I SDF-1, 3 hrs at 4° C.; read-out: Avg Ser IC50. As to the method:
as §1, §2
In order to more properly assess the binding efficacy of the compounds, radioligand binding assays were carried out in the presence of 100% human serum to more accurately reflect the in vivo environment. […] Target compounds were tested to determine their ability to bind with CXCR7 sites on MCF-7 and/or MDA-MB-435S CXCR7 transfected cells. Efficiency-maximized radioligand binding using filtration protocols as described in Dairaghi D J, et al., HHV8-encoded vMIP-I selectively engages chemokine receptor CCR5. Agonist and antagonist profiles of viral chemokines., J. Biol. Chem. 1999 Jul. 30; 274(31): 21569-74 and Gosling J, et al., Cutting edge: identification of a novel chemokine receptor that binds dendritic cell- and T cell-active chemokines including ELC, SLC, and TECK., J. Immunol. 2000 Mar. 15; 164(6):2851-6 was used.
In these assays, MCF-7 and/or MDA-MB-435S cells were interrogated with the target compounds and the ability of these compounds to displace 125 I radiolabeled SDF-1 was assessed using the protocol described in Dairaghi and Gosling. The target compounds were added to the plate to the indicated concentration followed by addition of cells and radiolabeled chemokine (125I SDF-1), both in the following medium (human AB serum with 10 mM HEPES added to stabilize at pH 7.4). All assays were then incubated for 3 hrs at 4° C. with gentle agitation. Following incubation in all binding assays, reactions were aspirated onto PEI-treated GF/B glass filters (Packard) using a cell harvester (Packard) and washed twice (25 mM HEPES, 500 mM NaCl, 1 mM CaCl2, 5 mM MgCl2, adjusted to pH 7.1). Scintillant (MicroScint 10, Packard) was added to the wells, and the filters were counted in a Packard Topcount scintillation counter. Data were analyzed and plotted using GraphPad Prism (GraphPad Software).

Test [3] deals with C6 cells implanted into the brains of Sprague-Dawley rats. In words: Rat C6 model of glioblastoma. Type of test: in vivo. To be noted: tumors irradiated after 7 days with 5-20 Gy, then treated with compound. As for the experimental part: Many tumor models in animals are known in the art, and may be employed to evaluate a compound of instance. For instance, in a rat C6 model of glioblastoma, 1×10^6 C6 cells were implanted by stereotactic injection into the into the brains of Sprague-Dawley rats. After 7 days tumors were irradiated with between 5-20 Gy of radiation. Following irradiation rats were treated (eg via subcutaneous, intraperitoneal, oral, parenteral or other route) with compound or vehicle control and tumors are allowed to progress. Animals were followed until death or loss of >20% weight, or removed for tumor induced neurodeficits eg seizures and immobility in according with appropriate regulations and standards.

`O=C(N[C@H]1CCN(c2nccn3cccc23)C1)c1ccn(-c2ccc(F)cc2)n1` [Compound 1.128]: the concentration for half-maximal inhibition (IC50) at CXCR7 receptor [1] and on CXCR7 receptor [2] was at most 500 nM throughout.
As for `O=C(N[C@H]1CCN(c2nccn3ccnc23)C1)c1noc(-c2ccccc2)n1` [Compound 1.121], the IC50 on CXCR7 receptor [1] and at CXCR7 receptor [2] was at most 500 nM in each case.
As for `O=C(N[C@H]1CCN(c2nccn3ccnc23)C1)c1ncn(-c2ccc(F)cc2)n1` [Compound 1.090], in test [3], the “antitumor activity (delay in tumor growth vs vehicle treated control; Kaplan Meier analysis of survival)” value was “profound antitumor activity”.
For `O=C(N[C@@H]1CCN(c2nccn3ccnc23)C1)c1ncn(-c2ccccc2)n1` [Compound 1.027], at CXCR7 receptor [2], the IC50 was 500 to 2500 nM.
Same read-out and setting: the result for `O=C(N[C@H]1CCN(c2nccn3cnnc23)C1)c1ncn(-c2ccccc2)n1` [Compound 1.127] reads 500 to 2500 nM.
In the case of `Cc1ccn2ccnc(N3CC[C@H](NC(=O)c4csc(N5CCC(O)CC5)n4)C3)c12` [Compound 1.097], the half-maximal inhibitory concentration (IC50) on CXCR7 receptor [1] and on CXCR7 receptor [2] was at most 500 nM in each case.
Take `O=C(N[C@H]1CCN(c2nccn3cccc23)C1)c1csc(N2CCC(O)CC2)n1` [Compound 1.098]: the concentration for half-maximal inhibition (IC50) on CXCR7 receptor [1] and at CXCR7 receptor [2] was at most 500 nM throughout.
Take `O=C(N[C@H]1CCN(c2nccn3ccnc23)C1)c1csc(N2CCC3(CC3)C(O)C2)n1` (stereo partly shown) [Compound 1.047]: the IC50 at CXCR7 receptor [2] was 2500 to 15000 nM.
The same measure, in the same setting: the result for `CN(C)c1cnc(C(=O)N[C@H]2CCN(c3nccn4cccc34)C2)nc1` [Compound 1.049] reads at most 500 nM.

A word on the IC50: it is the concentration at which inhibition is half-maximal.
